Read-outs that look alike come from different tables or passages of the source.
How the values were obtained:
[1] = tested on: K562 ALDH (−) fraction (general cancer cells); assay: Cancer stem-cell selective inhibitory action against chronic myelocytic leukemia cells, ALDH (−) fraction, CellTiter-Glo; format: cell-based, Human; conditions: for activity at 10 µg/mL: 10 μg/ml
Protocol: (§1) Human chronic myelocytic leukemia cells, K562, were pre-cultured in RPMI1640 medium containing 10% FBS at 37° C. in a 5% CO2 ambient. Then, a fraction containing 80% or more of cancer stem cells was extracted by use of ALDEFLUOR reagent (manufactured by VERITAS Corporation) and FACSAria flow cytometry (manufactured by Nippon Becton, Dickinson and Company). Subsequently, Compound (5) was added to the medium so as to obtain a final concentration of 10 μg/mL and cultured at 37° C. for 24 hours in a 5% CO2 ambient. The cultured cells were analyzed for viable cell count according to CellTiter-Glo Luminescent Cell Viability Assay (manufactured by Promega KK.). As a reference, the number of cells cultured in a medium containing a 0.1% dimethylsulfoxide solution (hereinafter, simply referred to as DMSO) in place of a medium containing Compound (1), in the aforementioned operation, was used as 0.1. Note that hereinafter, an ALDEFLUOR reagent positive fraction (deemed as cancer stem cells) is represented by ALDH (+), whereas an ALDEFLUOR reagent negative fraction (not deemed as cancer stem cells) is represented by ALDH (−), in some cases.
(§2) The same operation as in Experimental Example 12 was repeated except that Compound (5) in Experimental Example 12 was changed to the compounds shown in Table 4 and final concentrations shown in Table 4 were used and viable cell counts were separately analyzed. Note that the growth rate in Examples herein is a numerical value of the number of cells obtained after culture relative to the number of cells (regarded as 0.1) grown in a medium containing 0.1% DMSO.
(§3) The same operation as in Experimental Example 12 was repeated except that Compound (5) in Experimental Example 12 was changed to Imatinib (manufactured by NOVARTIS), which is a general anticancer drug, and comparative compounds shown in Table 4 and final concentrations shown in Table 4 were used and viable cell counts were separately analyzed.
(§4) The growth suppressive effect of cancer stem cells was evaluated based on the following criteria. Note that the growth rate in Examples herein is a numerical value relative to the number of cells (regarded as 0.1) grown in a medium containing 0.1% DMSO. • A: The value of ALDH (+) is less than 0.5 (growth suppressive effect against cancer stem cells is extremely high) • B: The value of ALDH (+) is 0.5 or more and less than 0.95 (growth suppressive effect against cancer stem cells is high) • C: The value of ALDH (+) is 0.95 or more (no growth suppressive effect against cancer stem cells)
(§5) Furthermore, superiority of cancer stem cells was evaluated by comparing cancer stem cells to cancer cells based on the following criteria. ALDH (+) represents cancer stem cells; whereas ALDH (−) represents general cancer cells. • A: The value of ALDH (+)/ALDH (−) is less than 0.8 (selective inhibitory effect against cancer stem cells is extremely high) • B: The value of ALDH (+)/ALDH (−) is 0.8 or more and less than 0.95 (selective inhibitory effect against cancer stem cells is high) • C: The value of ALDH (+)/ALDH (−) is 0.95 or more (no selective inhibitory effect against cancer stem cells)

[2] = tested on: Human pancreas cancer cells, KLM-1; assay: Cancer cell inhibitory (growth suppressive) action against pancreatic cancer cells, CellTiter-Glo viable cell count; format: cell-based; conditions: KLM1, KLM-1, 10 μg/mL, 24 hours
Protocol: (§6) Observation on cancer cell inhibitory (growth suppressive) action against pancreatic cancer cells Human pancreas cancer cells, KLM-1, were pre-cultured in RPMI1640 medium containing 10% FBS at 37° C. in a 5% CO2 ambient. Thereafter, 4,000 cells were seeded per well of a 96-well plate and further cultured for 24 hours. Subsequently, Compound (1) was added to the medium so as to obtain a final concentration of 10 μg/mL and cultured at 37° C. for 24 hours in a 5% CO2 ambient. The cultured cells were analyzed for viable cell count according to CellTiter-Glo Luminescent Cell Viability Assay (manufactured by Promega KK.). As a reference, the number of cells cultured in a medium containing a 0.1% dimethylsulfoxide solution (hereinafter, simply referred to as DMSO) in place of a medium containing Compound (1), in the aforementioned operation, was regarded (100%).
Viable cell count was analyzed in the same manner as in Experimental Example 1 except that Compound (1) of Experimental Example 1 was changed to compounds shown in Table 2.
Viable cell count was analyzed in the same manner as in Experimental Example 1 except that Compound (1) was changed to comparative compounds 1 to 4.
Viable cell counts of Experimental Examples 1 to 7 and Comparative Examples 1 to 4 were analyzed to obtain growth rates.
Evaluation of cancer cell inhibition against the pancreatic cancer cells (KLM-1) (growth suppression) was made based on the following criteria. Note that the growth rate in Examples herein is a numerical value of the number of cells obtained after culture relative to the number of cells (regarded as 100) grown in a medium containing 0.1% DMSO. Evaluation of cancer cell inhibition against the pancreatic cancer cells (KLM-1) was made as follows. • A: Cancer cell growth rate is less than 20% (cancer cell inhibitory (growth suppressive) effect is extremely high) • B: Cancer cell growth rate is 20% or more and less than 50% (cancer cell inhibitory (growth suppressive) effect is high) • C: Cancer cell growth rate is 50% or more (cancer cell inhibitory (growth suppressive) effect is low)

[3] = Measurement of fluorescent property of compound (spectrofluorometer); format: physicochemical; conditions: 5 μM DMSO solution
Protocol: The excitation wavelength and fluorescence wavelength of the compound were measured by a FL4500 spectrofluorometric measuring machine manufactured by Hitachi High-Technologies Corporation.

[4] = tested on: Prostatic cancer cells, PC-3; assay: Cancer cell inhibitory (growth suppressive) action against prostatic cancer cells, CellTiter-Glo viable cell count; format: cell-based; conditions: PC-3, 10 μg/mL, 24 hours
Protocol: as §6, with “Prostatic” for “Observation on cancer cell inhibitory (growth suppressive) action against pancreatic cancer cells Human pancreas”, “PC-3,” for “KLM-1,”, “(11)” for “(1)”, “(11),” for “(1),”, “used as 100.” for “regarded (100%).”
Viable cell count was analyzed in the same manner as in Experimental Example 8 except that the compounds shown in Table 3 were used in place of Compound (11) of Experimental Example 8.
Viable cell count was analyzed in the same manner as in Experimental Example 8 except that comparative compounds 1 to 4 were used in place of Compound (11) of Experimental Example 8.
The growth rate in Examples herein is a numerical value of the number of cells obtained after culture relative to the number of cells (regarded as 100) grown in a medium containing 0.1% DMSO.
Evaluation of cancer cell inhibition against the prostatic cancer cells (PC-3) was made as follows. • A: Cancer cell growth rate is less than 20% (cancer cell inhibitory (growth suppressive) effect is extremely high) • B: Cancer cell growth rate is 20% or more and less than 50% (cancer cell inhibitory (growth suppressive) effect is high) • C: Cancer cell growth rate is 50% or more (cancer cell inhibitory (growth suppressive) effect is low)

[5] = tested on: K562 ALDH (+) fraction (cancer stem cells); assay: Cancer stem-cell selective inhibitory action against chronic myelocytic leukemia cells, ALDH (+) fraction, CellTiter-Glo; format: cell-based; conditions: Homo sapiens, 24 hours; for activity at 10 µg/mL: 10 μg/ml; for activity at 0.12 µg/mL: 0.12 μg/ml; for activity at 0.24 µg/mL: 0.24 μg/ml; for activity at 0.35 µg/mL: 0.35 μg/ml; for activity at 0.47 µg/mL: 0.47 μg/ml; for activity at 0.59 µg/mL: 0.59 μg/ml
Protocol: as §1, §2, §3, §4, §5

[6] = tested on: K562-BFP human chronic myelocytic leukemia cells transplanted to zebra young fish; assay: Cancer metastasis suppressive effect in metastatic foci of cancer cells transplanted to zebra young fish; format: in vivo; conditions: metastatic foci (region within 300 to 450 μm from a transplanted tumor); for Evaluation (inhibition rate in metastatic foci): 0.5 μm in breeding water; for Inhibition rate: final concentration of 0.5 μm in breeding water, 100×(1-F1/F0) versus DMSO
From the text: From cell strain K562-BFP, which is a strain of human chronic myelocytic leukemia cells having fluorescent protein TagBFP constantly expressed, a fraction (ALDH (+)) containing 80% or more of cancer stem cells was extracted by use of a cancer stem cell marker, ALDEFLUOR reagent (manufactured by VERITAS Corporation) and FACSAria flow cytometry (manufactured by Nippon Becton, Dickinson and Company). The ALDH (+) fraction and a ALDH (−) fraction of general cancer cells were transplanted separately to zebra young fish (MieKomachi lineage, 2 days after fertilization) and the fish were raised in a 32° C. environment. Furthermore, 24 hours after transplantation, Compound (16) was added to breeding water so as to obtain a final concentration of […] and fish were raised for two days in a 32° C. environment. Cells transplanted to the zebra young fish were observed under MZ16F fluorescent stereoscopic microscope (manufactured by Leica Microsystems) and a fluorescent image of the cells after 24 hours was photographed and then fluorescent intensity was quantified.
As a reference, the fluorescent intensity of cells, which were cultured in the same operation method as above in a medium containing a 0.1% DMSO solution in place of Compound (16), was used.
Fluorescent images were photographed in the same manner as in Experimental Example 29 except that Imatinib and Dasatinib were respectively used in place of the compound (16) in Experimental Example 29.
The inhibition rate herein was obtained according to the expression: 100×(1-F1/F0), where the fluorescent intensity of cells when a test substance was added is represented by F1, and the fluorescent intensity of cells when a reference substance (DMSO) was added is represented by F0.
The growth suppressive effect in metastatic foci (region within 300 to 450 μm from a transplanted tumor) of cancer stem cells was evaluated based on the following criteria. • A: Inhibition rate is 70 or more (growth suppressive effect against metastatic foci (region within 300 to 450 μm from a transplanted tumor) of cancer stem cells is extremely high) • B: Inhibition rate is 50 or more and less than 70 (growth suppressive effect against metastatic foci (region within 300 to 450 μm from a transplanted tumor) of cancer stem cells is high) • C: Inhibition rate is less than 50 (growth suppressive effect against metastatic foci (region within 300 to 450 μm from a transplanted tumor) of cancer stem cells is low)

[7] = Homo sapiens, 24 hours, relative to 0.1% DMSO, read-out: ALDH(−) (growth rate)
[8] = read-out: Evaluation (cancer cell growth rate)
[9] = relative to 0.1% DMSO (100), read-out: Cancer cell growth rate (%)
[10] = read-out: Growth suppression evaluated
[11] = relative to 0.1% DMSO, read-out: ALDH(+) (growth rate)

Excitation wavelength λex [3] [nm] | Fluorescence wavelength λem [3] [nm] | Structure (SMILES) | activity at 10 µg/mL [1, 7] [%] | activity at 10 µg/mL [2, 8] [%] | activity at 10 µg/mL [2, 9] [%] | activity at 10 µg/mL [4, 8] [%] | activity at 10 µg/mL [4, 9] [%] | activity at 10 µg/mL [5, 10] [%] | activity at 10 µg/mL [5, 11] [%] | Evaluation (inhibition rate in metastatic foci) [6] | Inhibition rate [6] | other results
493 | 585 | CCn1c2ccccc2c2cc(/C=c3/s/c(=C\C4=[N+](CC)c5ccccc5C4(C)C)n(CC(=O)O)c3=O)ccc21 [Compound 20] | 25 | 20 to 50 | 22.3 | < 20 | 4.8 | < 50 | 14 |  |  | 
 |  | Cc1nc(Nc2ncc(C(=O)Nc3c(C)cccc3Cl)s2)cc(N2CCN(CCO)CC2)n1 [Dasatinib] |  |  |  |  |  |  |  | C (Inhibition rate is less than 50) | 36 | 
568 | 643 | CC[N+]1=C(/C=c2\s/c(=C/c3ccc4c(c3)C3CCCC3N4c3ccccc3)c(=O)n2CC(=O)O)C(C)(C)c2ccccc21 (centres unmarked) [Compound 15] | 26 | < 20 | 9 | < 20 | 7.1 | < 50 | 21 |  |  | 
 |  | Cc1ccc(NC(=O)c2ccc(CN3CCN(C)CC3)cc2)cc1Nc1nccc(-c2cccnc2)n1 [Imatinib, reference compound] |  |  |  |  |  |  |  | B (Inhibition rate is 50 or more and less than 70) | 60 | inhibitory effect against general cancer cells, in words [1]: an inhibitory effect against general cancer cells was observed; activity at 0.12 µg/mL ([1]; Homo sapiens, 0.12 μg/ml, 24 hours, relative to 0.1% DMSO, read-out: ALDH(−) (growth rate)): 51%; activity at 0.24 µg/mL ([1]; Homo sapiens, 0.24 μg/ml, 24 hours, relative to 0.1% DMSO, read-out: ALDH(−) (growth rate)): 40%; activity at 0.35 µg/mL ([1]; Homo sapiens, 0.35 μg/ml, 24 hours, relative to 0.1% DMSO, read-out: ALDH(−) (growth rate)): 32%; activity at 0.47 µg/mL ([1]; Homo sapiens, 0.47 μg/ml, 24 hours, relative to 0.1% DMSO, read-out: ALDH(−) (growth rate)): 22%; activity at 0.59 µg/mL ([1]; Homo sapiens, 0.59 μg/ml, 24 hours, relative to 0.1% DMSO, read-out: ALDH(−) (growth rate)): 11%; activity at 0.12 µg/mL [5, 10]: 50 to 95%; activity at 0.12 µg/mL [5, 11]: 74%; activity at 0.24 µg/mL [5, 10]: 50 to 95%; activity at 0.24 µg/mL [5, 11]: 59%; activity at 0.35 µg/mL [5, 10]: < 50%; activity at 0.35 µg/mL [5, 11]: 48%; activity at 0.47 µg/mL [5, 10]: < 50%; activity at 0.47 µg/mL [5, 11]: 36%; activity at 0.59 µg/mL [5, 10]: < 50%; activity at 0.59 µg/mL [5, 11]: 31%
